Where “and” joins values, the source holds several entries; their conditions need not be identical. Equal values may be shown once. Read-outs that look alike come from different tables or passages of the source.
Experiment: Ocular tissue concentrations (aqueous humor, vitreous humor, iris, retina, choroid, cornea) after topical ocular, subcutaneous and intravitreal administration
Assay type: in vivo, New Zealand White rabbits
Method: To measure the concentration of Compound 1 in plasma and ocular tissues following topical ocular, subcutaneous, and intravitreal administration, New Zealand White rabbits were administered Compound 1, and plasma and ocular samples were collected at pre-determined time points. Compound 1 formulations were prepared fresh on each day of dosing.
Ocular tissue samples from both eyes of each animal were collected and weights were recorded. Plasma and ocular tissue sample concentrations of Compound 1 were determined by LC-MS/MS.
New Zealand White rabbits weighing 2.5 to 3.5 kg were used on this study. Rabbits were housed one per cage. Animals were not fasted and only healthy animals with no ocular illness were used. Two rabbits per group were sacrificed at each of four ocular tissue sampling time points for a total of eight rabbits per group.
Animals were anesthetized for ocular (topical) and intravitreal dosing following the 12IA7 IACUC protocol. Each rabbit received a bolus dose of test formulation either via topical ocular administration 3 times daily on Days 1 and 2 (at 0, 6, and 12 hours), and once on Day 3 (at 0 hours) into both eyes; via intravitreal administration into both eyes once on Day 1 (at 0 hours); or via subcutaneous administration 2 times daily on Days 1 and 2 (at 0 and 8 hours) and once daily on Day 3 (at 0 hours). Doses were given within an approximately 1 hour window each day where applicable.
On Day 1, for intravitreal administration, or on Day 3, for topical ocular and subcutaneous administration, at the appropriate ocular tissue collection time points, animals were euthanized and both eyes were enucleated immediately. Following enucleation, each eye was rinsed with phosphate-buffered saline. Ocular tissue samples from both eyes of each animal were collected at predetermined time points and weights were recorded. All the samples were frozen immediately on dry ice, and stored at −60° C. to −80° C. pending bioanalysis.
An LC-MS/MS method was developed for the determination of Compound 1 in rabbit aqueous tissues (plasma, aqueous and vitreous humor) and solid ocular tissue samples. A pre-study standard curve was analyzed to determine the specificity, range, and lower limit of quantitation of the method. Plasma and tissue homogenate study samples were extracted and analyzed. All the samples were treated identically to the standards.
One eight-point standard curve was used in each analytical batch. To be accepted, each batch must have had at least five of eight standards with accuracy within ±20% of nominal, except at the lower limit of quantification (LLOQ), where ±25% was acceptable.
Concentration versus time data is plotted in FIGS. 3-16. All data are expressed as ng/g of the free drug. Samples that were below the limit of quantitation (0.2 ng/mL) were not used in the calculation of averages.

[1] = Group 3 subcutaneous 5 mg/kg, 0.5 hr
[2] = Group 3 subcutaneous 5 mg/kg, 1.0 hr
[3] = Group 3 subcutaneous 5 mg/kg, 2.0 hr
[4] = Group 3 subcutaneous 5 mg/kg, 4.0 hr
[5] = Group 5 intravitreal 2.5 mg per eye, 6.0 hr
[6] = Group 5 intravitreal 2.5 mg per eye, 24 hr
[7] = Group 5 intravitreal 2.5 mg per eye, 48 hr
[8] = Group 5 intravitreal 2.5 mg per eye, 72 hr

- Average Peak Concentration, Vitreous Humor (Group 3 subcutaneous 5 mg/kg/dose, suspension): 0.40 ng/g
- concentration at 6 hr (New Zealand White, rabbit, aqueous humor, other: intravitreal, 2.5 mg per eye, Group 5 intravitreal 2.5 mg per eye, 6.0 hr, read-out: aqueous humor Average Conc.): 26400 ng/g
- concentration at 24 hr (New Zealand White, rabbit, aqueous humor, other: intravitreal, 2.5 mg per eye, Group 5 intravitreal 2.5 mg per eye, 24 hr, read-out: aqueous humor Average Conc.): 4270 ng/g
- concentration at 48 hr (New Zealand White, rabbit, aqueous humor, other: intravitreal, 2.5 mg per eye, Group 5 intravitreal 2.5 mg per eye, 48 hr, read-out: aqueous humor Average Conc.): 915 ng/g
- concentration at 72 hr (New Zealand White, rabbit, aqueous humor, other: intravitreal, 2.5 mg per eye, Group 5 intravitreal 2.5 mg per eye, 72 hr, read-out: aqueous humor Average Conc.): 120 ng/g
- concentration at 0.5 h (New Zealand White, rabbit, aqueous humor, subcutaneous, 5 mg/kg, Group 3 subcutaneous 5 mg/kg, 0.5 hr, read-out: aqueous humor Average Conc.): 1.21 ng/g
- concentration at 1 h (New Zealand White, rabbit, aqueous humor, subcutaneous, 5 mg/kg, Group 3 subcutaneous 5 mg/kg, 1.0 hr, read-out: aqueous humor Average Conc.): 0.41 ng/g
- concentration at 2 hr (New Zealand White, rabbit, aqueous humor, subcutaneous, 5 mg/kg, Group 3 subcutaneous 5 mg/kg, 2.0 hr, read-out: aqueous humor Average Conc.): 0.66 ng/g
- concentration at 2 hr (New Zealand White, rabbit, aqueous humor, subcutaneous, 5 mg/kg, Group 3 subcutaneous 5 mg/kg, 2.0 hr, read-out: aqueous humor Conc., individual eyes (OD, OS)): 0.601 ng/mL
- concentration at 4 hr (New Zealand White, rabbit, aqueous humor, subcutaneous, 5 mg/kg, Group 3 subcutaneous 5 mg/kg, 4.0 hr, read-out: aqueous humor Average Conc.): 0.51 ng/g
- concentration at 4 hr (New Zealand White, rabbit, aqueous humor, subcutaneous, 5 mg/kg, Group 3 subcutaneous 5 mg/kg, 4.0 hr, read-out: aqueous humor Conc., individual eyes (OD, OS)): 0.209 ng/mL
- concentration at 6 h (New Zealand White, rabbit, vitreous humor, other: intravitreal, 2.5 mg per eye, Group 5 intravitreal 2.5 mg per eye, 6.0 hr, read-out: vitreous humor Average Conc.): 480000 ng/g
- concentration at 24 h (New Zealand White, rabbit, vitreous humor, other: intravitreal, 2.5 mg per eye, Group 5 intravitreal 2.5 mg per eye, 24 hr, read-out: vitreous humor Average Conc.): 409000 ng/g
- concentration at 24 h (New Zealand White, rabbit, vitreous humor, other: intravitreal, 2.5 mg per eye, Group 5 intravitreal 2.5 mg per eye, 24 hr, read-out: vitreous humor Conc., individual eyes (OD, OS)): 296000 ng/mL
- concentration at 48 h (New Zealand White, rabbit, vitreous humor, other: intravitreal, 2.5 mg per eye, Group 5 intravitreal 2.5 mg per eye, 48 hr, read-out: vitreous humor Average Conc.): 97800 ng/g
- concentration at 72 h (New Zealand White, rabbit, vitreous humor, other: intravitreal, 2.5 mg per eye, Group 5 intravitreal 2.5 mg per eye, 72 hr, read-out: vitreous humor Average Conc.): 65400 ng/g
- concentration at 0.5 hr (New Zealand White, rabbit, vitreous humor, subcutaneous, 5 mg/kg, Group 3 subcutaneous 5 mg/kg, 0.5 hr, read-out: vitreous humor Average Conc.): 0.4 ng/g
- concentration at 0.5 hr (New Zealand White, rabbit, vitreous humor, subcutaneous, 5 mg/kg, Group 3 subcutaneous 5 mg/kg, 0.5 hr, read-out: vitreous humor Conc., individual eyes (OD, OS)): 0.227 ng/mL
- concentration at 1 hr (New Zealand White, rabbit, vitreous humor, subcutaneous, 5 mg/kg, Group 3 subcutaneous 5 mg/kg, 1.0 hr, read-out: vitreous humor Average Conc.): 0.41 ng/g
- concentration at 1 hr (New Zealand White, rabbit, vitreous humor, subcutaneous, 5 mg/kg, Group 3 subcutaneous 5 mg/kg, 1.0 hr, read-out: vitreous humor Conc., individual eyes (OD, OS)): 0.407 ng/mL
- concentration at 4 hr (New Zealand White, rabbit, vitreous humor, subcutaneous, 5 mg/kg, Group 3 subcutaneous 5 mg/kg, 4.0 hr, read-out: vitreous humor Average Conc.): 0.41 ng/g
- concentration at 4 hr (New Zealand White, rabbit, vitreous humor, subcutaneous, 5 mg/kg, Group 3 subcutaneous 5 mg/kg, 4.0 hr, read-out: vitreous humor Conc., individual eyes (OD, OS)): 0.408 ng/mL
Structure (SMILES): COC(=O)N[C@@H](Cc1ccccc1)C(=O)N[C@@H](Cc1ccc(NS(=O)(=O)O)cc1)c1csc(-c2cccs2)n1 [Compound 1 free acid]
- aqueous humor Conc., individual eyes (OD, OS) [1]: BLOQ (Below the limit of quantitation (0.2 ng/mL)) (2×) and 0.519 ng/mL and 1.90 ng/mL
- vitreous humor Conc., individual eyes (OD, OS) [1]: BLOQ (Below the limit of quantitation (0.2 ng/mL)) and 0.261 ng/mL
- aqueous humor Conc., individual eyes (OD, OS) [2]: 0.485 ng/mL and 0.684 ng/mL and 0.229 ng/mL and 0.257 ng/mL
- vitreous humor Conc., individual eyes (OD, OS) [2]: BLOQ (Below the limit of quantitation (0.2 ng/mL))
- aqueous humor Conc., individual eyes (OD, OS) [3]: BLOQ (Below the limit of quantitation (0.2 ng/mL)) and 0.594 ng/mL
- vitreous humor Conc., individual eyes (OD, OS) [3]: BLOQ (Below the limit of quantitation (0.2 ng/mL))
- aqueous humor Conc., individual eyes (OD, OS) [4]: 0.229 ng/mL and BLOQ (Below the limit of quantitation (0.2 ng/mL))
- vitreous humor Conc., individual eyes (OD, OS) [4]: BLOQ (Below the limit of quantitation (0.2 ng/mL))
- aqueous humor Conc., individual eyes (OD, OS) [5]: 34200 ng/mL and 15700 ng/mL and 23400 ng/mL and 32300 ng/mL
- vitreous humor Conc., individual eyes (OD, OS) [5]: 592000 ng/mL and 625000 ng/mL and 432000 ng/mL and 270000 ng/mL
- aqueous humor Conc., individual eyes (OD, OS) [6]: 3890 ng/mL and 6480 ng/mL and 5540 ng/mL and 1170 ng/mL
- vitreous humor Conc., individual eyes (OD, OS) [6]: 528000 ng/mL and 491000 ng/mL and 320000 ng/mL
- aqueous humor Conc., individual eyes (OD, OS) [7]: 476 ng/mL and 632 ng/mL and 1220 ng/mL and 1330 ng/mL
- vitreous humor Conc., individual eyes (OD, OS) [7]: 75900 ng/mL and 148000 ng/mL and 68300 ng/mL and 99000 ng/mL
- aqueous humor Conc., individual eyes (OD, OS) [8]: 145 ng/mL and 172 ng/mL and 94.1 ng/mL and 70.2 ng/mL
- vitreous humor Conc., individual eyes (OD, OS) [8]: 96500 ng/mL and 101000 ng/mL and 16200 ng/mL
